# Test results published in patent US6071884A, “Pharmaceutical compositions and therapeutic methods” (Kirin Beer Kabushiki Kaisha, priority 1992, dated 2000).
# Experiments:
# [1] = Life-span-increasing effect on irradiation of a lethal dose of radiation; format: in vivo, mouse (BDF1); conditions: 10 mice/group, 9 Gy X-ray, 0.1 mg/kg i.v. days 0, 4, 8
# Protocol: Pharmacological Test 4: Life-Span-Increasing Effect on Irradiation of a Lethal Dose of Radiation
# An experiment was carried out by using 6 week old female BDF1 mice purchased from Japan SLC Co., Ltd., with 10 mice made one group.
# The entire bodies of the entire body of the mice were irradiated with 9 Gy of X-rays by using a Hitachi X-ray irradiator (MBR-1520R), and the day on which the X-ray was irradiated was referred to as "day 0".
# [2] = system: marrow cells (mononuclear cell fraction); test: Proliferation-stimulating effect on marrow cell of mouse (3H-TdR uptake); format: cell-based, mouse (BALB/c); conditions: percentage of control, 72 h; for activity at 1 µg/mL: 10^0 μg/ml; for activity at 0.1 µg/mL: 10^-1 μg/ml; for activity at 0.01 µg/mL: 10^-2 μg/ml; for activity at 0.001 µg/mL: 10^-3 μg/ml
# Protocol: Pharmacological Test 1: Proliferation-Stimulating Effect on Marrow Cell of Mouse
# Marrow cells were prepared from the thigh bone of a 7 week old female BALB/c mouse purchased from Japan SLC Co., Ltd., and a mononuclear cell fraction (MNF) obtained by fractionation using a lympholyte-M (Cedar Lane, Ontario, Canada) was used in the following experiment.
# The concentration of the MNF was adjusted to 1.5×10^6 cells/ml by using 10% FCS RPMI 1640 (Nissui Pharmaceutical Co., Ltd., Tokyo, Japan) as a culture medium. 10 μl/well of a sample with a predetermined concentration and 100 μl/well of the above-prepared MNF were placed on a round-bottomed 96 well plate, and incubated under the conditions of 37° C. and 5% CO2 for 72 hours. Thereafter, 0.5 μCi/well of ^3 H-thymidine (^3 H-TDR) was added. After 8 hour incubation, the cells were harvested, and the amount of the 3H-TdR taken in the nuclei was measured by a liquid scintillation counter.
# blood platelets [3] = test: Thrombocytopenia-inhibiting effect in X-ray-irradiated mice; format: in vivo, mouse (BDF1); conditions: 10 days after 5 Gy X-ray; 0.1 mg/kg i.v. within 2 h; mean ± SD; vehicle per series 10.3, 6.8, 6.7; non-treatment 68.2, 96.9, 73.0
# Protocol: Pharmacological Test 5: Thromboclytopenia-Inhibiting Effect
# The thrombocytopenia-inhibiting effect of each sample upon an X-ray-irradiated mouser which is one of models with a decreased number of blood platelets was examined.
# An experiment was carried out by using 6 week old female BDF1 mice purchased from Japan SLC Co., Ltd., with 6 mice made one group.
# 5 Gy of X ray was irradiated to the entire body of the mice by a Hitachi X-ray irradiator CMBR-1520R). Within 2 hours after the irradiation, each sample was administered to the caudal vein of the mice at an amount of 0.1 mg/kg.
# (§1) After 10 days, blood was collected from the fundus vein of the mice, and the number of blood platelets was measured by a sequential multi-channel hemocytometer E-2500/cs (Toa Iyo Denshi Kabushiki Kaisha). The number of blood platelets of the non-treated group, that of the medium-administered group, and that of the sample-administered group are shown in Table 5.
# blood platelets [4] = test: Blood-platelet-increasing effect upon normal mouse; format: in vivo, mouse (BDF1); conditions: normal mice; 6 days after 0.1 mg/kg i.v.; mean ± SD; vehicle per series 58.2, 63.0, 71.1
# Protocol: Pharmacological Test 6: Blood-Platelet-Increasing Effect upon Mouse
# An experiment was carried out by using 6 week old female BDF1 mice purchased from Japan SLC Co., Ltd., with 5 mice made one group.
# as §1, with “Each sample was administered to the caudal vein of the mice at a dose of 0.1 mg/kg. After” for “After”, “6” for “10”, “vehicle-administered” for “non-treated group, that of the medium-administered”, “6.” for “5.”
# [5] = day 10, controls per series 10, 10, 10, 10, 10, 8
# [6] = day 15, controls per series 8, 9, 5, 5, 7, 1
# [7] = day 20, controls per series 4, 5, 1, 2, 3, 0
# [8] = day 25, controls per series 3, 3, 0, 0, 2, 0
# [9] = day 30, controls per series 1, 1, 0, 0, 0, 0
SMILES,"Number of Surviving Mice [1, 5]","Number of Surviving Mice [1, 6]","Number of Surviving Mice [1, 7]","Number of Surviving Mice [1, 8]","Number of Surviving Mice [1, 9]","Number of Surviving Mice ([1]; day 35, all controls 0)","Number of Surviving Mice ([1]; day 40, all controls 0)",activity at 1 µg/mL [2],activity at 0.1 µg/mL [2],activity at 0.01 µg/mL [2],activity at 0.001 µg/mL [2],Number of Blood Platelets (blood platelets [3]),Number of Blood Platelets (blood platelets [4])
"CCCCCCCCCCCCC/C=C/[C@@H](O)[C@H](CO[C@H]1O[C@H](CO)[C@H](O)[C@H](O)[C@H]1O)NC(=O)CCCCCCCCCCCCCCCCC [Compound 15, (2S,3R,4E)-1-(α-D-galactopyranosyloxy)-2-octadecanoylamino-4-octadecen-3-ol]",10 mice,9 mice,6 mice,6 mice,6 mice,6 mice,6 mice,979%,292%,101%,69%,17.8 ± 2.4 × 10^4 /μl,84.7 ± 6.0 × 10^4 /μl
"CCCCCCCCCCCCCCCCCCCCCCCC(=O)N[C@@H](CO[C@H]1O[C@H](CO)[C@H](O)[C@H](O)[C@H]1O)[C@H](O)[C@H](O)CCCCCCC [Compound 19, (2S,3S,4R)-1-(α-D-galactopyranosyloxy)-2-tetracosanoylamino-3,4-undecanediol]",10 mice,10 mice,10 mice,10 mice,10 mice,10 mice,10 mice,–,499%,207%,173%,23.4 ± 4.2 × 10^4 /μl,106.4 ± 12.7 × 10^4 /μl
"CCCCCCCCCCCCCCCCCCCCCC[C@@H](O)C(=O)N[C@@H](CO[C@H]1O[C@H](CO)[C@H](O)[C@H](O)[C@H]1O)[C@H](O)[C@H](O)CCCCCCC [Compound 24, (2S,3S,4R)-1-(α-D-galactopyranosyloxy)-2-[(R)-2-hydroxytetracosanoylamino]-3,4-undecanediol]",10 mice,9 mice,9 mice,9 mice,9 mice,9 mice,9 mice,576%,197%,79%,77%,21.6 ± 7.2 × 10^4 /μl,102.6 ± 9.9 × 10^4 /μl
"CCCCCCCCCCCCCCCCCCCCCCCC[C@@H](O)C(=O)N[C@@H](CO[C@H]1O[C@H](CO)[C@H](O)[C@H](O)[C@H]1O)[C@H](O)[C@H](O)CCCCCCCCCCCCCCC [Compound 26, (2S,3S,4R)-1-(α-D-galactopyranosyloxy)-2-[(R)-2-hydroxyhexacosanoylamino]-3,4-nonadecanediol]",10 mice,9 mice,9 mice,8 mice,8 mice,8 mice,8 mice,–,271%,183%,156%,19.8 ± 4.3 × 10^4 /μl,113.7 ± 7.1 × 10^4 /μl
"CCCCCCCC/C=C\CCCCCCCC(=O)N[C@@H](CO[C@H]1O[C@H](CO)[C@H](O)[C@H](O)[C@H]1O)[C@H](O)CCCCCCCCCCCCCCC [Compound 29, (2S,3R)-1-(α-D-galactopyranosyloxy)-2-oleoylamino-3-octadecanol]",10 mice,9 mice,8 mice,8 mice,8 mice,8 mice,8 mice,865%,382%,187%,97%,18.1 ± 5.0 × 10^4 /μl,86.3 ± 3.1 × 10^4 /μl
